From patent US20240401058A1, “METHOD OF REGULATING PULMONARY ARTERY VASCULAR REMODELING” (THE TRUSTEES OF INDIANA UNIVERSITY, priority 2021, published 2024)

Experiments:
Type in all cases: cell-based, human
[1] = test system: hPASMC; assay: Cell proliferation rate in hPASMC following EMAP II treatment; conditions: inhibitor pretreatment, EMAP II 24 hours
Method: Cells were treated with EMAP II or vehicle, cells were rinsed at the desired time point, and lysis buffer was applied.

[2] = test system: Ac-H3K9; assay: CUT&RUN with acetylated H3K9 antibody in hPASMC; conditions: for EMAP II promoted hyperacetylation of H3K9 (Ac-H3K9 peaks): EMAP II 2-3 hours
Method: Cleavage Under Targets and Release Using Nuclease (CUT&RUN) was performed with hPASMC using CUTANA® protocol v1.6. For each condition, nuclei from two biological replicates were extracted by incubating cells on ice for 10 min in Nuclei Extraction buffer (NE: 20 mM HEPES-KOH, pH 7.9; 10 mM KCl; 0.1% Triton X-100; 20% Glycerol; 0.5 mM spermidine; 1× complete protease inhibitor (GoldBio), collecting by centrifugation (600 g, 3 min, 4° C.), discarding the supernatant, and resuspending at [100 μl/500K nuclei] sample in NE buffer. For each target 500K nuclei were immobilized onto Concanavalin-A beads (EpiCypher #21-1401) and incubated overnight (4° C. with gentle rocking) with 0.5 μg of antibody IgG (negative control), trimethylated H3K4 (positive control), Ac-H3K9 (all validated to SNAP-ChIP nucleosome standards). CUT&RUN enriched DNA was purified and used to prepare sequencing libraries with the Ultra II DNA Library Prep kit (New England Biolabs #E7645S). Libraries were sequenced on the Illumina NextSeq 550, obtaining ˜8 million paired end reads on average. The CUT&RUN paired reads were used for quality control using FASTQ Groomer (Galaxy Version 1.1.5) and paired ends were aligned against the GRCh38/hg38 reference genome assembly for human using bowtie2 (Galaxy Version 2.4.2+galaxy0). After quality-based filtering with SAM or BAM tools (Galaxy Version 1.8+galaxy1), MACS2 (Galaxy Version 2.1.1.20160309.6) was applied for CUT&RUN peak calling of Ac-H3K9 against the IgG control with genome size of 2.7e9 and then, DiffBind (Galaxy Version 2.10.0) was used to analyze the differential binding sites between the control and rEMAP II treated samples.

[3] = test system: iPAH: PASMCs; assay: Cell proliferation rate of iPAH: PASMCs; conditions: iSPHK2 pretreatment 24 hours
Method: All studies involving human lung tissues and cells were conducted according to the Institutional review board of Indiana University School of Medicine. Deidentified archived tissues and pulmonary arterial smooth muscle cells (PASMCs) obtained from the Pulmonary Hypertension Breakthrough Initiative (PHBI) biorepository from patients with Idiopathic Pulmonary Arterial Hypertension (iPAH: Group 1 PH) at time of lung transplantation and patients without PH that were failed donor lungs (FDL).
Primary human PASMCs (hPASMCs), pulmonary microvascular endothelial cells (hPMVECs) purchased from Lonza (Walkersville, MD) and iPAH: PASMCs were cultured in complete growth medium or conditioned media in a humidified atmosphere or 1% O2 with 5% CO2 at 37° C. For all studies, passages 5-10 were used for hPASMCs and hPMVECs.

[4] = test system: nuclear S1P; assay: ELISA for S1P quantification in nuclear fractions of hPASMC; conditions: inhibitor pretreatment, EMAP II 15 or 150 minutes
Method: Equal number of hPASMC cells (15000/[…]) were plated and serum starved for overnight. Cells were pretreated with inhibitors if needed and stimulated for in a series of time points and collected the cells. Cells were pelleted out and washed with PBS. After the extraction of nuclear proteins, protein concentration was measured. S1P levels were measured using S1P ELISA kit (MyBioSource, MBS069092) following manufacturer's instructions. S1P levels were normalized against protein levels.

[5] = test system: pSPHK2 in nuclear fractions of hPASMC; assay: Nuclear pSPHK2 in hPASMC after EMAP II treatment (immunoblot of nuclear fractions, immunofluorescence); conditions: inhibitor pretreatment, EMAP II 150 minutes
Method: Primary human pulmonary artery smooth muscle cells (hPASMC) purchased from Lonza (Walkersville, MD) were cultured in complete growth medium containing smooth muscle growth media-2 (SmGM-2) with 10% FBS and growth factors provided as a kit by the supplier (Lonza, (Walkersville, MD). Cells were cultured in a humidified atmosphere with 5% CO2 at 37° C. For all studies, passages 5-10 were used for hPASMCs. For treatment studies, subconfluent cells plated in multi-well plates were serum starved and if required, pretreated with inhibitors before stimulation with 2 μg/mL recombinant EMAP II. All the controls were handled similar to the test samples. Cells were treated with EMAP II or vehicle, cells were rinsed at the desired time point, and lysis buffer was applied.
After appropriate treatments, protein lysates were prepared by using RIPA buffer (for cells) or home-made lysis buffer (tissue) supplemented with phosphatase and protease inhibitors (Thermo Fisher Scientific). Alpha-tubulin or Vinculin was used as a loading control. For nuclear and cytoplasmic fractionation, NE-PER kit from Thermo Fischer Scientific was used. Western blots were performed according to standard methods and quantified using densitometry using Image Studio Lite software from LI-COR Biosciences. […]

[6] = test system: HDAC; assay: HDAC assay in nuclear fractions of hPASMC; conditions: inhibitor pretreatment, EMAP II 150 minutes
Method: Equal number of hPASMC cells (15000/[…]) were plated and serum starved for overnight. Cells were pretreated with inhibitors and stimulated for the desired time points and collected. Cells were pelleted out and washed with PBS. After the extraction of nuclear proteins, protein concentration was measured. HDAC levels were measured using HDAC activity flurometric kit (Abcam, ab156064) following manufacturer's instructions. Free unbound HDAC levels were normalized against protein levels.

| Structure (SMILES) | EMAP II mediated cell proliferation [1] | EMAP II mediated cell proliferation ([1]; listed as iSPHK2) | differentially acetylated sites by EMAPII that are altered by iSPHK2 pretreatment [2] [sites] | differentially acetylated upstream sites by EMAPII that are also altered by iSPHK2 pretreatment [2] [sites] | EMAP II promoted hyperacetylation of H3K9 (Ac-H3K9 peaks) ([2]; inhibitor pretreatment) | EMAP II promoted hyperacetylation of H3K9 (Ac-H3K9 peaks) ([2]; inhibitor pretreatment, listed as iSPHK2) | level of Ac-H3K9 regions in KLF4 ([2]; inhibitor pretreatment, EMAPII treated) | proliferation rate [3] | EMAP II generated nuclear S1P [4] | EMAP II generated nuclear S1P ([4]; listed as iSPHK2) | EMAP II induced nuclear activation of SPHK2 (nuclear pSPHK2/lamin B) [5] | EMAP II induced nuclear activation of SPHK2 (nuclear pSPHK2/lamin B) ([5]; listed as iSPHK2) | HDAC activity [6] | HDAC activity ([6]; listed as iSPHK2) | HDAC activity ([6]; listed as iSPHK2 inhibitor) |
| --- | --- | --- | --- | --- | --- | --- | --- | --- | --- | --- | --- | --- | --- | --- | --- |
| Cc1cc(CS(=O)(=O)c2ccccc2)cc(OCc2ccc(CN3CCCC3CO)cc2)c1 (stereo not shown) [SPHK1 inhibitor, PF643] | blocked EMAPII mediated proliferation | – | – | – | – | – | – | – | – | – | – | – | – | – | – |
| O=C(NCc1ccncc1)C12CC3CC(C1)CC(c1ccc(Cl)cc1)(C3)C2 [SPHK2 inhibitor, ABC294640] | blocked EMAPII mediated proliferation | rescued | 5554 | 755 | partially diminished EMAP II promoted hyperacetylation of H3K9 | partially diminished EMAPII promoted hyperacetylation of H3K9 | rescued the level of Ac-H3K9 regions in EMAPII treated cells | restoring regular proliferation rates in iPAH: PASMCs | suppressed EMAP II generated nuclear S1P expression | suppressed EMAPII generated nuclear S1P expression | ablated the EMAP II induced nuclear activation of SPHK2 | ablated the EMAPII induced nuclear activation of SPHK2 | rescued decreased HDAC activity | rescued the loss of HDAC activity | rescued the loss of HDAC activity |
